Assay results: publication PMC4564171 (PLoS ONE, 2015)
Entries after “also recorded” stand apart in the source; their conditions may differ. Like-named read-outs stand apart in the source and are kept apart here.

Legend:
[1] = tested on: VirF-driven transcriptional activation; parameters: method as in PMID 24549153; conditions: VirF-driven β-galactosidase reporter; read-out: Shigella-Based Reporter Assay IC50; cited from earlier work
[2] = tested on: spread of an active S. flexneri infection; conditions: cited from earlier work
[3] = target: T1, MalE-VirF binding to the 5'Cy5-pvirB DNA probe (Shigella flexneri, UniProt P0A2T1); experiment: Electrophoretic mobility shift assay (EMSA) of MalE-VirF binding to pvirB DNA probe; conditions: compound 100 μM; MalE-VirF 1 μM; probe 0.25 μM
T1 construct: pMALvirF was constructed by cloning the virF gene into the vector, pMAL-c2x; made in house; host or cells: Shigella flexneri BS103 (pBAD202-MALvirF); initial preparations in E. coli KS1000 (pMALvirF)
T1 sequence (P0A2T1 whole entry, looked up): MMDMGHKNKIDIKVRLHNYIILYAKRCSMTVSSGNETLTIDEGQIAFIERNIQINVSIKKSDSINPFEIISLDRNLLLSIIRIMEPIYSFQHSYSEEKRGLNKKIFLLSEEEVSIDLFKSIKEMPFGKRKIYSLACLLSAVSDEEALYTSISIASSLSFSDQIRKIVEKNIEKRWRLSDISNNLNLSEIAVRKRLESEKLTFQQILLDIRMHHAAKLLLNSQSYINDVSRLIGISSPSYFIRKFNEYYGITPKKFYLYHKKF
Experimental: Reactions for the EMSAs were incubated in a 37°C water bath for 15 minutes. Reactions (15 μL total volume) were composed of 6 μL pvirB EMSA DNA probe (0.25 μM), 6 μL of either MalE-VirF (1.0 μM) or native gel loading buffer (Tris-HCl 0.3 M, 50% glycerol, 0.05% bromophenol blue, pH 7.0), 1 μL of salmon sperm DNA (0.7 mg/mL, Invitrogen), 0.5 μL BSA (0.07 mg/mL), and 1.5 μL of either DMSO or compound (100 μM). A 6% native polyacrylamide gel (29:1 acrylamide to bis-acrylamide ratio) was made with 0.25X TBE buffer (22 mM Tris Base, 22 mM boric acid, 0.5 mM EDTA, pH 9.5) for the EMSA. The gel was electrophoresed for 1 hour at 150 V in 0.25X TBE buffer at 4°C before samples were loaded. After the reaction solutions (12 μL) were loaded onto the gel, the gel was electrophoresed for an additional hour at 150 V and 4°C. The gel was then visualized using FluorChem M gel imager (Protein Simple, Santa Clara, CA) with a 607 nm excitation wavelength and a 710 nm emission filter.

[4] = tested on: mammalian cells; parameters: method as in PMID 24549153; conditions: at the tested concentrations; cited from earlier work
[5] = target: T2, MalE-VirF binding to the pvirB DNA probe (Shigella flexneri, UniProt P0A2T1); experiment: Fluorescence polarization (FP) assay, inhibition of MalE-VirF binding to the pvirB DNA probe
T2 construct: pMALvirF was constructed by cloning the virF gene into the vector, pMAL-c2x; made in house; host or cells: Shigella flexneri BS103 (pBAD202-MALvirF); initial preparations in E. coli KS1000 (pMALvirF)
T2 sequence (P0A2T1 whole entry, looked up): as above
Experimental: The FP assays were conducted in duplicate in black, half-area, 96-well plates (Corning, Twerksbury, MA). First, 30 μL of 5’-Fluoroscein-pvirB DNA probe working standard was added to appropriate wells of the microplate. The pvirB DNA working standard was in TE/NaCl buffer (see above) supplemented with BSA (0.07 mg/mL) and salmon sperm DNA (0.7 mg/mL). Next, 30 μL of varying concentrations of MalE-VirF in amylose resin elution buffer (see above) was added to appropriate wells of the microplate. The final concentration of pvirB DNA was either 50 nM (for test wells) or none (for blank wells) and the final concentrations of MalE-VirF ranged from 45 μM to 0.12 μM (for test wells) or none (for control wells). For each concentration of MalE-VirF tested, a blank well was also set up that included all reagents except pvirB DNA. The microplate was then incubated for 20 minutes at 37°C and anisotropy was determined using a SpectraMax M5 plate reader (Molecular Devices, Sunnyvale, CA). Data was acquired using an excitation wavelength equal to 490 nm and an emission wavelength equal to 520 nm. To determine anisotropy the following equation was used: Anisotropy=F∥-G^*F⊥/F∥+2^*G^*F⊥^*1000 where: Fǁ = fluorescence intensity parallel to excitation source after blanking, F┴ = fluorescence intensity perpendicular to excitation source after blanking, and G = G-factor (correction for polarization bias of the detection system). After anisotropy was determined, data were plotted using GraphPad Prism (La Jolla, Ca) and fit to the following equation: […] where Y = specific binding, KD = dissociation constant, BMAX = maximum binding, X = MalE-VirF concentration, and b = y-intercept.
The FP protocol listed above was adapted to determine the IC50 of the small molecule hit compounds. Compounds (ranging from 200 μM to 3.1 μM) or DMSO for controls (1% final concentration) were added to the pvirB DNA probe working standard prior to addition to the microplates. For IC50 determination, the MalE-VirF and pvirB DNA probe concentrations were held constant at 20 μM and 50 nM, respectively. Positive controls were established to determine 100% VirF inhibition (no MalE-VirF present, 50 nM pvirB DNA probe) and negative controls were set up to determine no VirF inhibition (1% DMSO, 20 μM MalE-VirF, and 50 nM pvirB DNA probe). Once again blanks were set up to include all reagents, except pvirB DNA probe. All reactions were run in duplicate. Anisotropy was calculated as listed above and data were plotted using GraphPad Prism then fit to the following equation: Y=Bottom+(Top-Bottom)/(1+10^(X-logIC50)) where: Y = anisotropy, X = log of compound concentration (M), Top and Bottom = plateaus in anisotropy units, and LogIC50 = log of the concentration that inhibits 50% of VirF binding. In the presence of the compounds (no VirF), a small increase (~6%) in the DNA anisotropy was observed.
The FP protocol used for IC50 determination was adapted to test a library of small molecule inhibitors of VirF. All steps were identical to the above protocol except compounds were tested at only 100 μM final concentration and positive control samples included 100 μM of compound. Once again blanks were set up to include all reagents, except pvirB DNA probe, and all reactions were run in duplicate. Anisotropy was calculated as listed above, and %inhibition was calculated as follows: %inhibition=rneg-rtest/rneg^*100 where: rneg = average anisotropy for negative controls and rtest = average anisotropy in presence of compound. Note: All rneg and rtest values were normalized to positive control values.

For `CN(C)CCOc1nc(-c2ccccc2)nc2c1oc1ccccc12` [compound 19615], the IC50 [1] is listed as 14 µM, the “Inhibition of the spread of an active S. flexneri infection” value ([2]; at 6.25 μM) is listed as 75% and the “Inhibition of the spread of an active S. flexneri infection” value ([2]; at concentrations at or below their IC50s in the reporter assay) is listed as “approximately 75%”. For the same molecule, the “Plaque Efficiency Assay IC75” value ([2]; ref Emanuele et al. J. Antibiotics 67:379–386 (2014)) was 6.25 µM, the “Effect on MalE-VirF binding to the pvirB DNA probe (EMSA)” value [3] was “appeared to inhibit MalE-VirF binding; also recorded: dramatically reduced binding” and the “Toxicity to mammalian cells” value [4] was “not toxic”. For the same molecule, the IC50 [5] was 46 ± 2.2 µM, the Ki [5] was 5.6 µM and the inhibition at 100 µM ([5]; read-out: % Inhibition at 100 μM) was 63%.
